Assay results: patent US9439438B2 (priority 2011, dated 2016)

Test system: mice
Details: mouse, in vivo

Structure (SMILES): [Cl][Mn][Cl] [Mn, MnCl2]
- resistance to a lethal STx challenge: completely resistant
